Data set [1] has as its target T1, human endothelial constitutive NOS (hecNOS) (Homo sapiens, UniProt P29474).
T1 construct: made in house; host or cells: Sf9 insect cells (baculovirus vector)
Briefly: Citrulline assay for nitric oxide synthase, hecNOS. The format is biochemical. The settings on record: recombinant enzyme, conversion of L-[2,3-3H]-arginine to citrulline, 30 μM L-arginine, calmodulin included. An excerpt: (§1) Citrulline Assay for Nitric Oxide Synthase
(§2) Nitric oxide synthase (NOS) activity can be measured by monitoring the conversion of L-[2,3-^3H]-arginine to L-[2,3-^3H]-citrulline (Bredt and Snyder, Proc. Natl. Acad. Sci. U.S.A., 87, 682-685, 1990 and Moore et al, J. Med. Chem., 39, 669-672, 1996). Human inducible NOS (hiNOS), human endothelial constitutive NOS (hecNOS) and human neuronal constitutive NOS (hncNOS) are each cloned from RNA extracted from human tissue. The cDNA for human inducible NOS (hiNOS) is isolated from a λcDNA library made from RNA extracted from a colon sample from a patient with ulcerative colitis. The cDNA for human endothelial constitutive NOS (hecNOS) is isolated from a λcDNA library made from RNA extracted from human umbilical vein endothelial cells (HUVEC) and the cDNA for human neuronal constitutive NOS (hncNOS) is isolated from a λcDNA library made from RNA extracted from human cerebellum obtained from a cadaver. The recombinant enzymes are expressed in Sf9 insect cells using a baculovirus vector (Rodi et al, in The Biology of Nitric Oxide, Pt. 4: Enzymology, Biochemistry and Immunology: Moncada, S., Feelisch, M., Busse, R., Higgs, E., Eds.; Portland Press Ltd.: London, 1995; pp 447-450). Enzyme activity is isolated from soluble cell extracts and partially purified by DEAE-Sepharose chromatography. To measure NOS activity, 10 μL of enzyme is added to 40 μL of 50 mM Tris (pH 7.6) in the presence or absence of test compounds and the reaction initiated by the addition of 50 μL of a reaction mixture containing 50 mM Tris (pH 7.6), 2.0 mg/mL bovine serum albumin, 2.0 mM DTT, 4.0 mM CaCl2, 20 μM FAD, 100 μM tetrahydrobiopterin, 0.4 mM NADPH and 60 μM L-arginine containing 0.9 μCi of L-[2,3-^3H]-arginine. The final concentration of L-arginine in the assay is 30 μM. For hecNOS or hncNOS, calmodulin is included at a final concentration of […]. Following incubation at 37° C. for 15 minutes, the reaction is terminated by addition of 400 μL of a suspension (1 part resin, 3 parts buffer) of Dowex 50W X-8 cation exchange resin in a stop buffer containing 10 mM EGTA, 100 mM HEPES, pH 5.5 and 1 mM L-citrulline. After mixing the resin is allowed to settle and L-[2,3-^3H]-Citrulline formation is determined by counting aliquots of the supernatant with a liquid scintillation counter. Results are reported in Table I as the IC50 values of compounds for hiNOS, hecNOS and hncNOS.

Data set [2] addresses T2, human neuronal constitutive NOS (hncNOS) (Homo sapiens, UniProt P29475).
T2 construct: made in house; host or cells: Sf9 insect cells (baculovirus vector)
Briefly: Citrulline assay for nitric oxide synthase, hncNOS. The settings on record: recombinant enzyme, conversion of L-[2,3-3H]-arginine to citrulline, 30 μM L-arginine, calmodulin included. The format is biochemical.
Source text: as §1, §2

Data set [3] has as its target T3, Human inducible NOS (hiNOS) (Homo sapiens, UniProt P35228).
T3 construct: made in house; host or cells: Sf9 insect cells (baculovirus vector)
Briefly: Citrulline assay for nitric oxide synthase, hiNOS. The format is biochemical. The settings on record: recombinant enzyme, conversion of L-[2,3-3H]-arginine to citrulline, 30 μM L-arginine.
Source text: as §1, §2

Six compounds from patent US6465686B2, “Halogenated 2-amino-5,6 heptenoic acid derivatives useful as nitric oxide synthase inhibitors” (Pharmacia Corporation, priority 2000, dated 2002) can be followed below.

Structures can show the parent of a compound that is named as a salt.

Broadly, the IC50 is the midpoint of a concentration-inhibition curve. On to `CC(=N)NCC(F)=CCC[C@H](N)C(=O)O` (mixture of isomers) [Example 2, (2S,5E/Z)-2-amino-6-fluoro-7-[(1-iminoethyl)amino]-5-heptenoic acid, dihydrochloride], for which the IC50 in data set [1] was found to be 195 µM; in data set [2], 21 µM; in data set [3] it was 2.2 µM.
`CC(=N)NC/C(F)=C\CC[C@H](N)C(=O)O` [Example 1, (2S,5E)-2-amino-6-fluoro-7-[(1-iminoethyl)amino]-5-heptenoic acid, dihydrochloride, monohydrate]: the IC50 in data set [1] amounted to 68 µM; in data set [2] it was 3.6 µM; in data set [3] it was 0.36 µM.
For `CC(=N)NC/C(F)=C/CC[C@H](N)C(=O)O` [Example 3, (2S,5Z)-2-amino-6-fluoro-7-[(1-iminoethyl)amino]-5-heptenoic acid, dihydrochloride], in that order: 303 µM, 105 µM and 12 µM.
As for `CC(=N)NC/C(F)=C/CC[C@H](N)C(=O)O` [Example 4, (2S,5Z)-2-amino-6-fluoro-7-[(1-iminoethyl)amino]-5-heptenoic acid, trihydrochloride, dihydrate], the IC50 in data set [1] is 112 µM; in data set [2] it was 65 µM; in data set [3], 8.6 µM.
The matching figures for `CC(=N)NC/C(F)=C\CC[C@@H](N)C(=O)O` [Example 5, (2R,5E)-2-amino-6-fluoro-7-[(1-iminoethyl)amino]-5-heptenoic acid, dihydrochloride, monohydrate]: 279 µM, 29 µM and below 5 µM.
The melting point is the temperature, or range, at which the solid turns liquid. Regarding `CC(=NO)NC/C(F)=C\CC[C@H](N)C(=O)O` [Example 10, (2S,5E)-2-amino-6-fluoro-7-[(1-hydroximinoethyl)amino]-5-heptenoic acid], the melting point lay within 198 to 200 °C.
